Test results taken from US10251959B2, “Oligomer-beta blocker conjugates” (Nektar Therapeutics, priority 2007, dated 2019).

What was measured:
[1] = target: T1, adrenergic, beta-2 (human) (Homo sapiens, UniProt P07550); test: adrenergic, beta-2 (human) binding assay; HL-60 cells, isoproterenol, EIA read-out; format: cell-based; details: 100 nM isoproterenol, 20 minutes at room temperature
T1 construct: endogenous in cells; host or cells: HL-60 (human promyelocytic leukemia cells)
Method: With respect to beta-2 adrenergic activity, for example, human promyelocytic leukemia cells (HL-60 cells) can be washed and added to physiological buffer. […] Thereafter, 100 nM (final) isoproterenol is added. After twenty minutes at room temperature, cells are centrifuged, buffer removed, and 0.1M HCl is added to stop reaction. […] Pharmacol. 27(1):33-54.
Briefly, human promyelocytic leukemia cells (HL-60 cells) were washed and physiological buffer was added before analysis. To this was added 300 μM IBMX to inhibit phosphodiesterase. […] Cells were then centrifuged, buffer removed and 0.1 M HCL was added to stop the reaction.

[2] = target: T2, adrenergic, beta-1 (human) (Homo sapiens, UniProt P08588); test: adrenergic, beta-1 (human) binding assay; human recombinant Sf9 cells, membranes, Europium time-resolved fluorescence; format: biochemical; details: Table 2, 30 nM isoproterenol
T2 construct: expressed in transfected cells; host or cells: Sf9 insect cells (membranes)
T2 sequence (P08588 whole entry): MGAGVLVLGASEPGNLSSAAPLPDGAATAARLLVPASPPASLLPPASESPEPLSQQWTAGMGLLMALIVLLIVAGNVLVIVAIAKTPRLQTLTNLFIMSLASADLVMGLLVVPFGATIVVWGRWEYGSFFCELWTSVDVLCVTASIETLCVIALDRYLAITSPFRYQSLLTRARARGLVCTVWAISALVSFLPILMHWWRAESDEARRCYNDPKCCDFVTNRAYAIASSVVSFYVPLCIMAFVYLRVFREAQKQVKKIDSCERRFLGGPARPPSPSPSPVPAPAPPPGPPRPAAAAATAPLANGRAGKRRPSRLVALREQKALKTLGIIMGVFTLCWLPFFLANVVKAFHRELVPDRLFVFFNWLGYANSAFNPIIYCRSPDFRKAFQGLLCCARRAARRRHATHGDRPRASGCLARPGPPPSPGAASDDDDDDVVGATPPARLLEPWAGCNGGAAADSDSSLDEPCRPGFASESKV
Method: The compound of interest is added to the membrane and then incubated for ten minutes. Thereafter, 100 nM GTP-Eu is added and incubated for an additional thirty minutes. Europium fluorescence is measured in a time-resolved fluorometer in order to ascertain any functional antagonist activity at the adrenergic beta 1 site. […] Briefly, Human recombinant Sf9 cells were used, wherein reactions were carried out in 50 mM HEPES [pH 7.4] containing 3 mM MgCl2, 0.1 μM GDP, 10 μm/mL Saoonin, and 1 mM DTT (dithiothreitol). The compound of interest was added to the membrane and then incubated for ten minutes at room temperature. Then, 30 nM of isoproterenol [final] to each well was added and allowed to incubate for an additional 30 minutes. Europium fluorescence was measured in a time-resolved fluorometer in order to ascertain any functional antagonist activity at the adrenergic beta-1 site. […] Briefly, Human recombinant Sf9 cells were used, wherein reactions were carried out in 50 mM HEPES [pH 7.4] containing 3 mM MgCl2, 0.1 μM GDP, 10 μm/mL Saoonin, and 1 mM DTT (dithiothreitol). The compound of interest was added to the membrane and then incubated for ten minutes at room temperature. Then, 30 nM of isoproterenol [final] to each well was added and allowed to incubate for an additional 30 minutes. Europium fluorescence was measured in a time-resolved fluorometer in order to ascertain any functional antagonist activity at the adrenergic beta-1 site.

T1 sequence (P07550 whole entry): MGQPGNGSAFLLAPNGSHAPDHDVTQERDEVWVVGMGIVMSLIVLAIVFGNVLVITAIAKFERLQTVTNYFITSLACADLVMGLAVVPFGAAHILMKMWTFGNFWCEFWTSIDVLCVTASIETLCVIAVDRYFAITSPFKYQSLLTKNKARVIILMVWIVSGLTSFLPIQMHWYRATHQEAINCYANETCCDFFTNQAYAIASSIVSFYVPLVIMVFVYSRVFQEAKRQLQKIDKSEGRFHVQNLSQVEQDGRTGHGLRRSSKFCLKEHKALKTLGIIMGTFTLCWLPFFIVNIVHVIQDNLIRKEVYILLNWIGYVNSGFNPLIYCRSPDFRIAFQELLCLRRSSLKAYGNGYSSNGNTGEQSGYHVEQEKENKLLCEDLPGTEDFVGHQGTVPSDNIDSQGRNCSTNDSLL

Compound: COCCOCCOCCOCCOCCOC(CNC(C)(C)C)COc1nsnc1N1CCOCC1 (stereo not shown) [Timolol Compound B]
- IC50 ([1]; Table 3, 300 μM IBMX): 1290 nM

Compound: COCCOCCOCCOCC(=O)O[C@H](COc1cccc2ccccc12)CN(C(=O)COCCOCCOCCOC)C(C)C [Propranolol Conjugate B]
- IC50 ([1]; Table 1, 300 μM IBMX): 13200 nM
- IC50 [2]: 3810 nM

Compound: COCCOCCOCCOCCOCCOCCOCCO[C@@H](CNC(C)C)COc1cccc2ccccc12 [Propranolol Conjugate D]
- IC50 ([1]; Table 1, 300 μM IBMX): 378 nM

Compound: COCCOCCOCCO[C@@H](CNC(C)C)COc1cccc2ccccc12 [Propranolol Conjugate A]
- IC50 ([1]; Table 1, 300 μM IBMX): 112 nM
- IC50 [2]: 1790 nM

Compound: COCCOCCOCCOCCOCCO[C@@H](CNC(C)C)COc1cccc2ccccc12 [Propranolol Conjugate C]
- IC50 ([1]; Table 1, 300 μM IBMX): 339 nM
- IC50 [2]: 4960 nM

Compound: COCCOCCOCCOCCOCCOCCOCCOCCOC(CNC(C)(C)C)COc1nsnc1N1CCOCC1 (stereo not shown) [Timolol Compound D]
- IC50 ([1]; Table 3, 300 μM IBMX): 629 nM

Compound: COCCOCCOCCOCCOCCOCCOCCOC(CNC(C)(C)C)COc1nsnc1N1CCOCC1 (stereo not shown) [Timolol Compound C]
- IC50 ([1]; Table 3, 300 μM IBMX): 603 nM

Compound: COCCOCCOCCOCCOCCOCCOCCOCC(=O)O[C@@H](CNC(C)C)COc1cccc2ccccc12 [Propranolol Conjugate E]
- IC50 ([1]; Table 1, 300 μM IBMX): 1680 nM

Compound: COCCOCCOCCOCC(=O)O[C@@H](CNC(C)C)COc1cccc2ccccc12 [Propranolol Conjugate F]
- IC50 ([1]; Table 1, 300 μM IBMX): 1660 nM
- IC50 [2]: 5390 nM
